Assay results published in ChEMBL document CHEMBL1201862, “PubChem BioAssay data set” (2004).
Counter-ions that a name gives are not always drawn. Activity calls are given as the source filed them. Cut-off read from the data, not from the text of the source, for most assays here: active = IC50 of 5 µM or less and inactive = more.

Columns and labels:
[1] = Concentration-dependent survival of SW480 colon cancer line, luminescence detection with CellTiter-Glo, half-maximal inhibitory concentration (AID 1117338); type: functional
[2] = RKO cell viability reduction, dose response, CellTiter-Glo luminescence (AID 1117322); type: functional
[3] = cytotoxicity toward HCT116 cells – cell-based, CellTiter-Glo luminescence, IC50, dose response (AID 1117332); type: functional; settings: HCT-116
[4] = SNU-C1 cell viability reduction, dose response, CellTiter-Glo luminescence (AID 1117323); type: functional, cell-based
[5] = cytotoxicity toward Colo320 cells – cell-based, CellTiter-Glo luminescence, IC50, dose response (AID 1117334); type: functional; settings: COLO 320
[6] = cytotoxicity toward HT-29 cells – cell-based, CellTiter-Glo luminescence, IC50, dose response (AID 1117330); type: functional
[7] = CellTiter-Glo luminescent dose response of DLD-1 viability loss (AID 1117352); type: functional
[8] = HCT116 cell viability decrease, GSK3B pretreatment – CellTiter-Glo, IC50, dose response (AID 1117339); type: functional; settings: HCT-116
[9] = target: Aryl hydrocarbon receptor (Homo sapiens, UniProt P35869); settings: Potency;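 note: confirmatory quantitative high-throughput screen measuring activation of the AhR signaling pathway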
Sequence of Aryl hydrocarbon receptor (P35869 whole entry): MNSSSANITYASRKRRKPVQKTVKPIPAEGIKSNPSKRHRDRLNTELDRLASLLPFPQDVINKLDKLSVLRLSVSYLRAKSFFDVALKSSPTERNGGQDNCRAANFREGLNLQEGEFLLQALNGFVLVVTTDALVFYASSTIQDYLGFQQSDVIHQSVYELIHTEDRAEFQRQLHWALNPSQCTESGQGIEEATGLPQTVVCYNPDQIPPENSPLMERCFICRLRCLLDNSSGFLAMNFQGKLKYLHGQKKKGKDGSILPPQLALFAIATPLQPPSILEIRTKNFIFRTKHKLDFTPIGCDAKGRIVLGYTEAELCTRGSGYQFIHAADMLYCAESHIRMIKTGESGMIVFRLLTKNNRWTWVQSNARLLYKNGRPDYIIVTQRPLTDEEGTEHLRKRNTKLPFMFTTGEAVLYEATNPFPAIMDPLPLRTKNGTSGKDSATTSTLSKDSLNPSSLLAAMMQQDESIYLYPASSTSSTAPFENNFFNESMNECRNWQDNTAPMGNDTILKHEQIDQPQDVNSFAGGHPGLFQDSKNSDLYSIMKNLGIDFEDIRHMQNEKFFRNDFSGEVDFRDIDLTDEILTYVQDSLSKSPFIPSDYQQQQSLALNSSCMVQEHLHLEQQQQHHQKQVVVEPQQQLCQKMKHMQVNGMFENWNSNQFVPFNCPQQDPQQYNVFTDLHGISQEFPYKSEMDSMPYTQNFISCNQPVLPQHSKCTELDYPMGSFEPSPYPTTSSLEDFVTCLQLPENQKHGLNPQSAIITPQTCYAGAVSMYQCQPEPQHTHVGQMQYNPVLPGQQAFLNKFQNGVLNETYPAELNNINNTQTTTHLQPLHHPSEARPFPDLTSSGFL

Protein Tat = Protein Tat (Human immunodeficiency virus type 1 group M subtype B (isolate HXB2)(HIV-1), UniProt P04608); type: functional;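 note: tat binding to TAR RNA read out by fluorescence polarization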
Sequence of Protein Tat (P04608 whole entry): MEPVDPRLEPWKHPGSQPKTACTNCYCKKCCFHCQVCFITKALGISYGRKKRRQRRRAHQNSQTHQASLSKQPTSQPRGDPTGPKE

[10] = target: Mitogen-activated protein kinase 10 (Homo sapiens, UniProt P53779); experiment: Dose response biochemical screening assay for inhibitors of c-Jun N-Terminal Kinase 3 (JNK3). [Related pubchem assays: 746 ]
Sequence of Mitogen-activated protein kinase 10 (P53779 whole entry): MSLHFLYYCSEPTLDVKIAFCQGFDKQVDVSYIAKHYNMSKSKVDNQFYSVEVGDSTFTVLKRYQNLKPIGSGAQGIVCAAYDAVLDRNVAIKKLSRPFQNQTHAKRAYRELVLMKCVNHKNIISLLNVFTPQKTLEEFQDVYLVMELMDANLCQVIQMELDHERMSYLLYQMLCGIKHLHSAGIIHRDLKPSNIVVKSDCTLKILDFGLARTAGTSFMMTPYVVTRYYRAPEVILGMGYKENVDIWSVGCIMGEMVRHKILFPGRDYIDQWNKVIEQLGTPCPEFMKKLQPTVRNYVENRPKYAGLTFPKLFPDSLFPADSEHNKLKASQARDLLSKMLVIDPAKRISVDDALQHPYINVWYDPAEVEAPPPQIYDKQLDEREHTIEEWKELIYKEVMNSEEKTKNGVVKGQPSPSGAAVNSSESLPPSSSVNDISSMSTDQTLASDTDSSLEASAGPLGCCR

[11] = Dose-response inhibition of insulin secretion in a rat insulinoma line at 5 mM glucose (AID 1117331); type: functional, cell-based; settings: INS-1E

CN(C)c1ccc(C(=C2C=CC(=[N+](C)C)C=C2)c2ccccc2)cc1
IC50 [1]: 0.00922 µM (active) | IC50 [2]: 0.118 µM (active) | IC50 [3]: 0.0179 µM (active) | IC50 [4]: 0.0354 µM (active) | IC50 [5]: 0.161 µM (active) | IC50 [6]: 0.00982 µM (active) | IC50 [7]: 0.0218 µM (active) | IC50 [8]: 0.00983 µM (active) | AC50 [9]: 7.94 µM (inconclusive)

CN1CCN(C(=O)CSc2nc(-c3cccs3)ccc2C#N)CC1
IC50 (Protein Tat): > 100 µM (active)

O=C1C(/C=N/Cc2cccnc2)=C(O)c2ccccc21
IC50 [10]: 32.1 µM (not active)

CN(C)CCCOc1nn(Cc2ccccc2)c2ccccc12 [BENZYDAMINE HYDROCHLORIDE]
IC50 [11]: 21.4 µM (inactive)

NC1=NCC2c3ccccc3Cc3ccccc3N12 (stereo not given) [EPINASTINE HYDROCHLORIDE]
IC50 [1]: > 20 µM (inactive) | IC50 [2]: > 20 µM (inactive) | IC50 [3]: > 20 µM (inactive) | IC50 [4]: > 20 µM (inactive) | IC50 [5]: > 20 µM (inactive) | IC50 [6]: > 20 µM (inactive) | IC50 [7]: > 20 µM (inactive) | IC50 [8]: > 20 µM (inactive)
